According to patent US12240843B2, “Substituted 1,2,4-triazolo[4,3-a]pyridine derivative and preparation method, herbicidal composition and application thereof” (Qingdao Kingagroot Chemical Compound Co., Ltd., priority 2019, dated 2025):

Experiments:
Assay type in all cases: in vivo
Setaria viridis = test: Weeding effect in post-emergence stage, greenhouse pot spray
Text: (§1) The activity level criteria for plant damage (i.e., growth control rate) are as follows: • Level 5: growth control rate is above 85%; • Level 4: growth control rate is greater than or equal to 60% and less than 85%; • Level 3: growth control rate is greater than or equal to 40% and less than 60%; • Level 2: growth control rate is greater than or equal to 20% and less than 40%; • Level 1: growth control rate is greater than or equal to 5% and less than 20%; • Level 0: growth control rate is less than 5%.
(§2) The above growth control rates are fresh weight control rates.
(§3) (1) Experiment on weeding effect in post-emergence stage: monocotyledonous and dicotyledonous weed seeds and major crop seeds (wheat, corn, rice, soybean, cotton, oilseed rape, millet, Sorghum) were placed in plastic pots filled with soil, then covered with 0.5-2 cm of soil, allowed to grow in a good greenhouse environment. After 2 weeks of sowing, the test plants were treated. The tested compounds of the present invention were respectively dissolved in acetone, then added with Tween 80, diluted with a certain amount of water to obtain a solution with a certain concentration, added with 1000 g/ha of emulsified methyl oleate as a synergist, and sprayed with a spray tower onto the plants. After the application, the plants were cultured for 3 weeks in the greenhouse, and then the experimental results of the weeding were listed in Table 2-3.

japonica rice = test: Post-emergence stage crop damage, greenhouse pot spray
Text: as §1, §2, §3

Leptochloa chinensis [1] = test: Weed effect in pre-emergence stage; conditions: direct seeding of rice; dose not given
Method: (§4) Seeds of monocotyledonous and dicotyledonous weeds and main crops (e.g. wheat, corn, rice, soybean, cotton, oilseed rape, millet and Sorghum) were put into a plastic pot loaded with soil and covered with 0.5-2 cm soil. The test compounds of the present invention was dissolved with acetone, then added with tween 80, diluted by a certain amount of water to reach a certain concentration, and sprayed immediately after sowing. The obtained seeds were incubated for 4 weeks in the greenhouse after spraying and the test results were observed. It was observed that the herbicide mostly had excellent effect at the application rate of 250 g a.i./ha, especially to weeds such as Echinochloa crusgalli, Digitaria sanguinalis, Leptochloa chinensis, and Abutilon theophrasti, etc. . . . And many compounds had good selectivity for corn, wheat, rice, soybean, and oilseed rape, etc. . . .

Digitaria sanguinalis [2] = test: Weed effect in pre-emergence stage; conditions: direct seeding of rice; dose not given
Method: as §4

Echinochloa crusgalli [3] = test: Weed effect in pre-emergence stage; conditions: direct seeding of rice; dose not given
Method: as §4

Abutilon theophrasti = test: Weed effect in pre-emergence stage; conditions: direct seeding of rice; dose not given
Method: as §4

rice = test: Pre-emergence stage crop selectivity; conditions: dose not given
Method: as §4

[4] = test system: rice (indica rice huanghuazhan); test: Post-emergence stage crop damage, greenhouse pot spray; conditions: for plant damage level, rice (indica rice huanghuazhan), post-emergence: 240 g/ha active ingredient, plus water 450 kg/ha, 3 weeks after application
Method: as §3

Leptochloa chinensis [5] = test: Weeding effect in post-emergence stage, greenhouse pot spray
Method: as §2, §3

Digitaria sanguinalis [6] = test: as above
Method: as §2, §3

[7] = test system: Amaranthus retroflexus L.; test: as above; conditions: 240 g/ha active ingredient, plus water 450 kg/ha; weeds 2-3 leaf stage; 3 weeks after application
Method: as §2, §3

Echinochloa crusgalli [8] = test: as above
Method: as §2, §3

[9] = 240 g/ha active ingredient, plus water 450 kg/ha, weeds 2-3 leaf stage, 3 weeks after application

Row | SMILES | weeding effect in post-emergence stage, Setaria viridis (activity level) (Setaria viridis; Dose 30 g/ha) | weeding effect in post-emergence stage, Setaria viridis (activity level) (Setaria viridis; Dose 60 g/ha) | weeding effect in post-emergence stage, Setaria viridis (activity level) (Setaria viridis; Dose 120 g/ha) | plant damage level, japonica rice, post-emergence (japonica rice; Dose 30 g/ha) | plant damage level, japonica rice, post-emergence (japonica rice; Dose 60 g/ha) | plant damage level, japonica rice, post-emergence (japonica rice; Dose 120 g/ha) | sealing effects on Leptochloa chinensis, pre-emergence (Leptochloa chinensis [1]) | sealing effects on Digitaria sanguinalis, pre-emergence (Digitaria sanguinalis [2]) | sealing effects on Echinochloa crusgalli, pre-emergence (Echinochloa crusgalli [3]) | sealing effects on Abutilon theophrasti, pre-emergence (Abutilon theophrasti) | safety for direct seeding of rice, pre-emergence (rice) | plant damage level, rice (indica rice huanghuazhan), post-emergence [4] | plant damage level, indica rice, post-emergence ([4]; Dose 30 g/ha) | plant damage level, indica rice, post-emergence ([4]; Dose 60 g/ha) | plant damage level, indica rice, post-emergence ([4]; Dose 120 g/ha) | weeding effect in post-emergence stage, Leptochloa chinensis (activity level) (Leptochloa chinensis [5]; [9]) | weeding effect in post-emergence stage, Leptochloa chinensis (activity level) (Leptochloa chinensis [5]; Dose 30 g/ha) | weeding effect in post-emergence stage, Digitaria sanguinalis (activity level) (Digitaria sanguinalis [6]; [9]) | weeding effect in post-emergence stage, Amaranthus retroflexus L. (activity level) [7] | weeding effect in post-emergence stage, Echinochloa crusgalli (activity level) (Echinochloa crusgalli [8]; [9]) | other results
1 | O=C1CCCC(=O)C1C(=O)c1ccn2c(C3CC3)nnc2c1Cl [Compound 2] | 5 (Level 5: growth control rate is above 85%) | 5 (Level 5: growth control rate is above 85%) | 5 (Level 5: growth control rate is above 85%) | 0 (Level 0: growth control rate is less than 5%) | 0 (Level 0: growth control rate is less than 5%) | 0 (Level 0: growth control rate is less than 5%) | excellent sealing effects | excellent sealing effects | excellent sealing effects | excellent sealing effects | safe and efficient | 0 (Level 0: growth control rate is less than 5%) | 0 (Level 0: growth control rate is less than 5%) | 0 (Level 0: growth control rate is less than 5%) | 0 (Level 0: growth control rate is less than 5%) | 5 (Level 5: growth control rate is above 85%) | 5 (Level 5: growth control rate is above 85%) | 5 (Level 5: growth control rate is above 85%) | 5 (Level 5: growth control rate is above 85%) | 5 (Level 5: growth control rate is above 85%) | weeding effect in post-emergence stage, Leptochloa chinensis (activity level) (Leptochloa chinensis [5]; Dose 60 g/ha): 5 (Level 5: growth control rate is above 85%); weeding effect in post-emergence stage, Leptochloa chinensis (activity level) (Leptochloa chinensis [5]; Dose 120 g/ha): 5 (Level 5: growth control rate is above 85%); weeding effect in post-emergence stage, Digitaria sanguinalis (activity level) (Digitaria sanguinalis [6]; Dose 30 g/ha): 5 (Level 5: growth control rate is above 85%); weeding effect in post-emergence stage, Digitaria sanguinalis (activity level) (Digitaria sanguinalis [6]; Dose 60 g/ha): 5 (Level 5: growth control rate is above 85%); weeding effect in post-emergence stage, Digitaria sanguinalis (activity level) (Digitaria sanguinalis [6]; Dose 120 g/ha): 5 (Level 5: growth control rate is above 85%); weeding effect in post-emergence stage, Echinochloa crusgalli (activity level) (Echinochloa crusgalli [8]; Dose 30 g/ha): 5 (Level 5: growth control rate is above 85%); weeding effect in post-emergence stage, Echinochloa crusgalli (activity level) (Echinochloa crusgalli [8]; Dose 60 g/ha): 5 (Level 5: growth control rate is above 85%); weeding effect in post-emergence stage, Echinochloa crusgalli (activity level) (Echinochloa crusgalli [8]; Dose 120 g/ha): 5 (Level 5: growth control rate is above 85%)
2 | O=C1CCCC(=O)C1C(=O)c1ccn2c(C3CC3(F)F)nnc2c1Cl (centres unmarked) [Compound 87] | – | – | – | – | – | – | – | – | – | – | – | 0 (Level 0: growth control rate is less than 5%) | – | – | – | 5 (Level 5: growth control rate is above 85%) | – | 4 (Level 4: growth control rate is greater than or equal to 60% and less than 85%) | 5 (Level 5: growth control rate is above 85%) | 4 (Level 4: growth control rate is greater than or equal to 60% and less than 85%) | –
3 | O=C(c1ccn2c(C3CC3)nnc2c1Cl)C1C(=O)C2CCC(C2)C1=O (centres unmarked) [Compound 274] | 5 (Level 5: growth control rate is above 85%) | 5 (Level 5: growth control rate is above 85%) | 5 (Level 5: growth control rate is above 85%) | 0 (Level 0: growth control rate is less than 5%) | 0 (Level 0: growth control rate is less than 5%) | 0 (Level 0: growth control rate is less than 5%) | excellent sealing effects | excellent sealing effects | excellent sealing effects | excellent sealing effects | safe and efficient | 0 (Level 0: growth control rate is less than 5%) | 0 (Level 0: growth control rate is less than 5%) | 0 (Level 0: growth control rate is less than 5%) | 0 (Level 0: growth control rate is less than 5%) | 5 (Level 5: growth control rate is above 85%) | 5 (Level 5: growth control rate is above 85%) | 5 (Level 5: growth control rate is above 85%) | 5 (Level 5: growth control rate is above 85%) | 5 (Level 5: growth control rate is above 85%) | weeding effect in post-emergence stage, Leptochloa chinensis (activity level) (Leptochloa chinensis [5]; Dose 60 g/ha): 5 (Level 5: growth control rate is above 85%); weeding effect in post-emergence stage, Leptochloa chinensis (activity level) (Leptochloa chinensis [5]; Dose 120 g/ha): 5 (Level 5: growth control rate is above 85%); weeding effect in post-emergence stage, Digitaria sanguinalis (activity level) (Digitaria sanguinalis [6]; Dose 30 g/ha): 5 (Level 5: growth control rate is above 85%); weeding effect in post-emergence stage, Digitaria sanguinalis (activity level) (Digitaria sanguinalis [6]; Dose 60 g/ha): 5 (Level 5: growth control rate is above 85%); weeding effect in post-emergence stage, Digitaria sanguinalis (activity level) (Digitaria sanguinalis [6]; Dose 120 g/ha): 5 (Level 5: growth control rate is above 85%); weeding effect in post-emergence stage, Echinochloa crusgalli (activity level) (Echinochloa crusgalli [8]; Dose 30 g/ha): 5 (Level 5: growth control rate is above 85%); weeding effect in post-emergence stage, Echinochloa crusgalli (activity level) (Echinochloa crusgalli [8]; Dose 60 g/ha): 5 (Level 5: growth control rate is above 85%); weeding effect in post-emergence stage, Echinochloa crusgalli (activity level) (Echinochloa crusgalli [8]; Dose 120 g/ha): 5 (Level 5: growth control rate is above 85%)
4 | CSc1nnc2c(Cl)c(C(=O)C3C(=O)CCCC3=O)ccn12 [Compound 118] | – | – | – | – | – | – | – | – | – | – | – | 0 (Level 0: growth control rate is less than 5%) | – | – | – | 5 (Level 5: growth control rate is above 85%) | – | 5 (Level 5: growth control rate is above 85%) | 5 (Level 5: growth control rate is above 85%) | 5 (Level 5: growth control rate is above 85%) | –
5 | COc1nnc2c(Cl)c(C(=O)C3C(=O)CCCC3=O)ccn12 [Compound 114] | – | – | – | – | – | – | – | – | – | – | – | 0 (Level 0: growth control rate is less than 5%) | – | – | – | 5 (Level 5: growth control rate is above 85%) | – | 5 (Level 5: growth control rate is above 85%) | 5 (Level 5: growth control rate is above 85%) | 5 (Level 5: growth control rate is above 85%) | –
